Laboratory results from patent US20110281901A1, “PHARMACEUTICAL COMPOSITIONS AND METHODS OF MAKING SAME” (GLAXO WELLCOME MANUFACTURING PTE LTD., priority 2010, published 2011).
In brackets after ≈: the same amount, converted by molar mass.

Columns and labels:
[1] = physchem; details: phosphate buffer, 25 °C, pH 5, aqueous buffer
[2] = Solubility of pazopanib free base in phosphate buffer; details: 25° C., pH 3.5

Cc1ccc(Nc2nccc(N(C)c3ccc4c(C)n(C)nc4c3)n2)cc1S(N)(=O)=O [pazopanib free base, 5-[[4-[(2,3-dimethyl-2H-indazol-6-yl)methylamino]-2-pyrimidinyl]amino]-2-methylbenzenesulfonamide]
solubility [1]: ~6 ng/mL (≈ 0.0137 µM)
approximate solubility [2]: ~20000 ng/mL
